Experimental data published in patent US20210395327A1, “Growth Hormone-Releasing Hormone Antagonists and Uses Thereof” (United States Government As Represented By The Department …, priority 2019, published 2021).
“Also recorded” adds a separate entry of the source. Like-named read-outs stand apart in the source and are kept apart here. Non-standard residues stand in square brackets, D forms with d. Residues, ends and D or L forms follow the SMILES beside them. *: point of attachment. Phenylacetyl(2,3,4,5,6-F5) = O=C(Cc1c(F)c(F)c(F)c(F)c1F)*; Phe(F5) = N[C@@H](Cc1c(F)c(F)c(F)c(F)c1F)C(=O)O; Phe(4-Cl) = N[C@@H](Cc1ccc(Cl)cc1)C(=O)O; hArg = N=C(N)NCCCC[C@H](N)C(=O)O; 12Ado = NCCCCCCCCCCCC(=O)O; Nle = CCCC[C@H](N)C(=O)O; Orn = NCCC[C@H](N)C(=O)O; Abu = CC[C@H](N)C(=O)O; PhAc = O=C(Cc1ccccc1)*; Aoc = NCCCCCCCC(=O)O

Tests used:
[1] = test system: KATOIII stomach cancer cells; test: In vitro cell viability, KATOIII; format: cell-based, human; details: antagonist 5 μM for 72 h, cell proliferation assay; MIA602 = 1
Experimental: (§1) The inhibitory effects of the various synthesized GHRH antagonists were tested in cell proliferation assays in various human cancer cell lines including stomach cancer (KATOIII, N87), colon cancer (HT-29), urothelial cancer (J82, RT4), pancreatic cancer (PANC-1, CFPAC-1), prostatic cancer (PC3), breast cancer (MX-1, HCC1806), ovarian cancer (SK-OV-3, OVCAR-3) and lung cancer (HCC827, H460).
(§2) Cell culture. Human cancer cell lines including pancreatic (PANC-1 and CFPAC-1), lung (HCC827 and H460), stomach (NCI-N87 and KATOIII), urothelial (J82, RT4), prostatic (PC3), breast (MX-1 and HCC 1806), colorectal (HT-29), and ovarian (SK-OV-3 and OVCAR-3) were obtained from the American Type Culture Collection (ATCC) and cultured at 37° C. in a humidified 95% air/5% CO2 atmosphere in the medium recommended by ATCC.
(§3) In vitro cell viability. Cell viability was analyzed as follows: cancer cells including pancreatic (PANC-1 and CFPAC-1), lung (HCC827 and H460), stomach (NCI-N87 and KATOIII), urothelial (J82, RT4), prostatic (PC3) and breast (MX-1 and HCC 1806), colorectal (HT-29) and ovarian (SK-OV-3 and OVCAR-3) were grown on 96 well plates to ˜60% confluence, the cells were starved for 24 h in culture medium containing 0.5% FBS. Cells were then treated with GHRH antagonists MIA602 AVR compounds at concentrations of 1, 2.5 or 5 μM, or vehicle (0.1% DMSO) in quintuplicates for 72 hours. The medium was replaced every 48 hours. Cell viability was measured using CellTiter 96 aqueous one solution kit (Promega). Inhibitory effects of tested AVR compounds in comparison to that of MIA602 are presented as inhibitory potency.
(§4) Inhibitory effects of selected AVR compounds in comparison to that of MIA602 are presented as inhibitory potency (e.g., percentage of inhibition). […] The cell lines tested including lung cancer HCC827 (FIG. 2A), pancreatic cancer CFPAC-1 (FIG. 2B), stomach cancer N87 (FIG. 2C), colon cancer HT-29 (FIG. 2D), breast cancers MX-1 and HCC1806 (FIGS. 2 E, F). Based on the results of cell proliferation assay after cancer cells were treated with antagonist at concentration of 5 μM for 72H, the relative inhibitory potency of AVR antagonists in comparison to MIA-602 is summarized in Table 3 A and B. Over 60 AVR compounds were tested in 12 cancer cell lines.

[2] = target: T1, membrane GHRH-receptors on human anterior pituitary cells (Homo sapiens, UniProt Q02643); test: Receptor binding, displacement of 125I-[His1,Nle27]-hGH-RH(1-32)NH2 on human pituitary membranes
T1 construct: Human pituitary was purchased from the National Hormone and Peptide Program; tissue National Hormone and Peptide Program; host or cells: human pituitary (membrane fractions)
T1 sequence (Q02643 23-423): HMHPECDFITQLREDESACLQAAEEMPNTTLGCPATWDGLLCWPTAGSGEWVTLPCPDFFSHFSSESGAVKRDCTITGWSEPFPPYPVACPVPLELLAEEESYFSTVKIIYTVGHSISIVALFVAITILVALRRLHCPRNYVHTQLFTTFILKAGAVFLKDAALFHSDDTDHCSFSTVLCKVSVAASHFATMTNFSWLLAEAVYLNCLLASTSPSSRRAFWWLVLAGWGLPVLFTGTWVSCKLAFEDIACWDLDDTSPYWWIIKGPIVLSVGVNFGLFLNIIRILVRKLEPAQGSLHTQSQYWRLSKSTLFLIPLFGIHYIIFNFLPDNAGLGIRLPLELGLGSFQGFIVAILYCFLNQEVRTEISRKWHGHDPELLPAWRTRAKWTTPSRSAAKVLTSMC
Experimental: Receptor binding affinities in vitro. Preparation of human pituitary membrane fractions and receptor binding of analogs of GH-RH were performed (Halmos G, Rekasi Z, Szoke B, Schally A V. (1993) Receptor 3:87-97). Human pituitary was purchased from the National Hormone and Peptide Program. […] Relative affinities compared to hGH-RH(1-29)NH2 were calculated as the ratio of IC50 (dose causing 50% inhibition of specific binding to receptors) of the tested peptides to the IC50 of hGH-RH(1-29)NH2. The values were calculated from technical duplicate tubes.
Nineteen new AVR analogs of GHRH were tested in the receptor binding assay. Table 6 presents the IC50 values of GHRH antagonists to membrane GHRH-receptors binding on human anterior pituitary cells.

[3] = test system: CFPAC-1 pancreatic cancer cells; test: In vitro cell viability, CFPAC-1; format: cell-based, human; details: antagonist 5 μM for 72 h, cell proliferation assay; MIA602 = 1
Experimental: as §1, §2, §3, §4
(§5) Based on the results of cell proliferation assay after cancer cells were treated with antagonist at concentration of 5 µM for 72H, * at concentration of 2 µM for 72 H.

[4] = test system: HCC827 lung cancer cells; test: In vitro cell viability, HCC827; format: cell-based, human; details: antagonist 5 μM for 72 h, cell proliferation assay; MIA602 = 1
Experimental: as §1, §2, §3, §4, §5

| SMILES | relative inhibitory potency in comparison to MIA-602, Stomach KATOIII [1] | IC50 [2] [pM] | relative inhibitory potency in comparison to MIA-602, Pancreatic CFPAC-1 [3] | relative inhibitory potency in comparison to MIA-602, Lung IICC827 [4] | binding affinity to membrane receptors of human pituitary cells (in words) ([2]; competitive binding, human pituitary membrane fractions) | IC50 ([2]; membrane receptors on human anterior pituitary cells, mean of two to three determinations, read-out: IC50) [pM] |
| --- | --- | --- | --- | --- | --- | --- |
| CCCC[C@H](NC(=O)[C@@H](NC(=O)[C@H](CC(=O)O)NC(=O)[C@H](CCC(N)=O)NC(=O)[C@H](CC(C)C)NC(=O)[C@H](CC(C)C)NC(=O)[C@H](CCCCN)NC(=O)[C@H](CCCNC(=N)N)NC(=O)[C@H](C)NC(=O)[C@H](CO)NC(=O)[C@H](CC(C)C)NC(=O)[C@H](CCC(N)=O)NC(=O)[C@H](CC)NC(=O)[C@H](CC(C)C)NC(=O)[C@@H](NC(=O)[C@H](CCCCN)NC(=O)[C@H](CCCNC(=N)N)NC(=O)[C@H](Cc1ccc(OC)cc1)NC(=O)[C@H](CCCCNC(=N)N)NC(=O)[C@H](CC(N)=O)NC(=O)[C@@H](NC(=O)[C@H](Cc1ccc(Cl)cc1)NC(=O)[C@@H](NC(=O)[C@H](C)NC(=O)[C@H](CC(=O)O)NC(=O)[C@@H](CCCNC(=N)N)NC(=O)[C@H](Cc1ccc(O)cc1)NC(=O)CCCCCCCCCCCNC(=O)Cc1ccccc1)[C@@H](C)CC)[C@@H](C)O)C(C)C)[C@@H](C)CC)C(=O)N[C@H](CCCNC(=N)N)C(=O)N[C@@H](CCCCNC(=N)N)C(=O)NCCCCCCCC(=O)NC [AVR-321, PhAC-Ada-Tyr-DArg-Asp-Ala-Ile-Cpa-Thr-Asn-Har-Tyr(Me)-Arg-Lys-Val-Leu-Abu-Gln-Leu-Ser-Ala-Arg-Lys-Leu-Leu-Gln-Asp-Ile-Nle-DArg-Har-Aoc-NHCH3] ({PhAc-12Ado}-Y[dR]DAI[Phe(4-Cl)]TN[hArg]Y(Me)RKVL[Abu]QLSARKLLQDI[Nle][dR][hArg][Aoc]-NHMe) | 1.414 | 230 |  |  |  |  |
| CCCC[C@H](NC(=O)[C@@H](NC(=O)[C@H](CC(=O)O)NC(=O)[C@H](CCC(N)=O)NC(=O)[C@H](CC(C)C)NC(=O)[C@H](CC(C)C)NC(=O)[C@H](CCCN)NC(=O)[C@H](Cc1c[nH]cn1)NC(=O)[C@H](C)NC(=O)[C@H](CO)NC(=O)[C@H](CC(C)C)NC(=O)[C@H](CCC(N)=O)NC(=O)[C@H](CC)NC(=O)[C@H](CC(C)C)NC(=O)[C@@H](NC(=O)[C@H](CCCN)NC(=O)[C@H](Cc1c[nH]cn1)NC(=O)[C@H](Cc1c(F)c(F)c(F)c(F)c1F)NC(=O)[C@H](CCCCNC(=N)N)NC(=O)[C@H](C)NC(=O)[C@@H](NC(=O)[C@H](Cc1ccc(Cl)cc1)NC(=O)[C@@H](NC(=O)[C@H](C)NC(=O)[C@H](CC(=O)O)NC(=O)[C@@H](CCCNC(=N)N)NC(=O)[C@H](Cc1ccc(O)cc1)NC(=O)CCCCCCCCCCCNC(=O)Cc1c(F)c(F)c(F)c(F)c1F)[C@@H](C)CC)[C@@H](C)O)C(C)C)[C@@H](C)CC)C(=O)N[C@H](CCCNC(=N)N)C(=O)N[C@@H](CCCCNC(=N)N)C(=O)NC [AVR-542, 5FPhAC-Ada-Tyr-DArg-Asp-Ala-Ile-Cpa-Thr-Ala-Har-5FPhe-His-Orn-Val-Leu-Abu-Gln-Leu-Ser-Ala-His-Orn-Leu-Leu-Gln-Asp-Ile-Nle-DArg-Har-NHCH3] ({Phenylacetyl(2,3,4,5,6-F5)-12Ado}-Y[dR]DAI[Phe(4-Cl)]TA[hArg][Phe(F5)]H[Orn]VL[Abu]QLSAH[Orn]LLQDI[Nle][dR][hArg]-NHMe) |  |  | 1.312 | 2.649 |  |  |
| CCCC[C@H](NC(=O)[C@@H](NC(=O)[C@H](CC(=O)O)NC(=O)[C@H](CCC(N)=O)NC(=O)[C@H](CC(C)C)NC(=O)[C@H](CC(C)C)NC(=O)[C@H](CCCN)NC(=O)[C@H](Cc1c[nH]cn1)NC(=O)[C@H](C)NC(=O)[C@H](CO)NC(=O)[C@H](CC(C)C)NC(=O)[C@H](CCC(N)=O)NC(=O)[C@H](CC)NC(=O)[C@H](CC(C)C)NC(=O)[C@@H](NC(=O)[C@H](CCCN)NC(=O)[C@H](Cc1c[nH]cn1)NC(=O)[C@H](Cc1c(F)c(F)c(F)c(F)c1F)NC(=O)[C@H](CCCCNC(=N)N)NC(=O)[C@H](C)NC(=O)[C@@H](NC(=O)[C@H](Cc1ccc(Cl)cc1)NC(=O)[C@@H](NC(=O)[C@H](C)NC(=O)[C@H](CC(=O)O)NC(=O)[C@@H](CCCNC(=N)N)NC(=O)[C@H](Cc1ccc(O)cc1)NC(=O)CCCCCCCCCCCNC(=O)Cc1c(F)c(F)c(F)c(F)c1F)[C@@H](C)CC)[C@@H](C)O)C(C)C)[C@@H](C)CC)C(=O)N[C@H](CCCNC(=N)N)C(=O)N[C@@H](CCCCNC(=N)N)C(=O)NCCCCCCCCCCCC(N)=O [AVR-552, 5FPhAC-Ada-Tyr-DArg-Asp-Ala-Ile-Cpa-Thr-Ala-Har-5FPhe-His-Orn-Val-Leu-Abu-Gln-Leu-Ser-Ala-His-Orn-Leu-Leu-Gln-Asp-Ile-Nle-DArg-Har-Ada-NH2] ({Phenylacetyl(2,3,4,5,6-F5)-12Ado}-Y[dR]DAI[Phe(4-Cl)]TA[hArg][Phe(F5)]H[Orn]VL[Abu]QLSAH[Orn]LLQDI[Nle][dR][hArg][12Ado]-NH2) |  |  | 1.57 | 4.376 | higher binding affinity in comparison to MIA-602; also recorded: highest binding affinities | 170 |
| CCCC[C@H](NC(=O)[C@@H](NC(=O)[C@H](CC(=O)O)NC(=O)[C@H](CCC(N)=O)NC(=O)[C@H](CC(C)C)NC(=O)[C@H](CC(C)C)NC(=O)[C@H](CCCN)NC(=O)[C@H](Cc1c[nH]cn1)NC(=O)[C@H](C)NC(=O)[C@H](CO)NC(=O)[C@H](CC(C)C)NC(=O)[C@H](CCC(N)=O)NC(=O)[C@H](CC)NC(=O)[C@H](CC(C)C)NC(=O)[C@@H](NC(=O)[C@H](CCCN)NC(=O)[C@H](Cc1c[nH]cn1)NC(=O)[C@H](Cc1c(F)c(F)c(F)c(F)c1F)NC(=O)[C@H](CCCCNC(=N)N)NC(=O)[C@H](C)NC(=O)[C@@H](NC(=O)[C@H](Cc1ccc(Cl)cc1)NC(=O)[C@@H](NC(=O)[C@H](C)NC(=O)[C@H](CC(=O)O)NC(=O)[C@@H](CCCNC(=N)N)NC(=O)[C@H](Cc1ccc(O)cc1)NC(=O)CCCCCCCCCCCNC(=O)Cc1ccccc1)[C@@H](C)CC)[C@@H](C)O)C(C)C)[C@@H](C)CC)C(=O)N[C@H](CCCNC(=N)N)C(=O)N[C@@H](CCCCNC(=N)N)C(N)=O [MIA-690, reference compound] ({PhAc-12Ado}-Y[dR]DAI[Phe(4-Cl)]TA[hArg][Phe(F5)]H[Orn]VL[Abu]QLSAH[Orn]LLQDI[Nle][dR][hArg]-NH2) |  | 530 |  |  |  |  |
